Test results from patent US20100076059A1, “METHOD OF EVALUATING COMPOUND EFFICACIOUS IN TREATING OBESITY BY USING Slc25a10” (priority 2003, published 2010).
Where no end group is shown, it is not given here.

What was measured:
human S1c25a10 gene = assay: Suppression of human S1c25a10 expression by siRNA transfection (RNAi); type: cell-based; conditions: siRNA to human S1c25a10 gene
Source text: (§1) First, a silencer siRNA construction kit (Ambion Inc.) was used to synthesize siRNA. Next, in order to determine the optimum sequences for human or mouse S1c25a10, twelve different sequences were examined based on suppression of S1c25a10 expression. FIG. 6(a) and (b) show the relative expression levels of S1c25a10 gene in each of the siRNA-transfected cells.
The sequence of each siRNA is shown below. The “Position” indicates the corresponding nucleic acid position of the human S1c25a10 gene (NM_012140) for each siRNA.
Next, siRNA-transfected cells were prepared. For siRNA transfection, the cells were seeded on a 6-well plate at a density of 2×10^4 cells/well. After 24 hours, the siRNA (H4 or H10) was transfected into the cells using Oligofectamine (Invitrogen). On the 2nd day after transfection, the cells were harvested and RNA was prepared using RNeasy (Qiagen). cDNA was prepared from the RNA by quantitative RT-PCR (Applied Biosystems), for quantitation of the S1c25a10 and ACC1 expression levels.

S1c25a10 gene = assay: S1c25a10 expression in white adipocytes (WAT) of mouse models, U74A / 25K1.8 chip; type: in vivo; conditions: non-treated C57BL/6N mice defined as 1
Description: (§2) A mouse model of obesity induced by administration of an NPY Y5 agonist was prepared in the following manner. Nine- to twelve-week-old male mice (C57BL/6J: Clea Japan) were raised under conditions with a room temperature of 23±2° C. and a humidity of 55±15%, with one mouse in each plastic cage. The mice were raised under a 12 hour lightness/darkness cycle, with lights on at 7:00 am and lights off at 7:00 pm. The mice were also given free access to feed (CE-2 (25.4 wt % protein, 50.3 wt % carbohydrate, 4.4 wt % lipid), Clea Japan) and water.
The mice were anesthetized with 80 mg/kg sodium pentobarbital (Dynabot) and a 28-gauge sterilized brain infusion cannula (Alzet Co.) was stereotactically implanted in the right cerebral ventricle. The cannula was positioned 0.4 mm behind and 0.8 mm to the side of the bregma, and to a depth of 2 mm, and was anchored vertically with respect to the cranial bone using dental cement. A polyvinyl chloride tube was used to connect the cannula to an osmotic pump (Model #2002: Alzet Co.) filled with 10 mM phosphate buffer containing 0.05% bovine serum albumin (BSA). A solution of D-Try^34 NPY in 10 mM PBS (containing 0.05% BSA) (prepared for 5 μg/day) was filled into the pump, and the pump was implanted subcutaneously at the back of the mouse for continuous infusion. An antibiotic (50 mg/kg cefamedine, product of Fujisawa Pharmaceutical Co., Ltd.) was also subcutaneously injected.
The mice were divided into three groups: a normally-fed group given infusion of the solvent alone (vehicle group); an obesity-induced group given infusion of D-Try^34 NPY (NYP Y5 agonist) with an increased food amount (ad lib fed group); and a group given infusion of D-Try^34 NPY but with food restricted to the same amount as the vehicle group (pair-fed group).
as §2, with “MCH (melanin-concentrating hormone)” for “an NPY Y5 agonist”, “Thirteen-week-old” for “Nine- to twelve-week-old”, “food” for “feed”, “water. […]” for “water.”
The mouse models prepared in Preparation Examples 1-4 were used for measurement of S1c25a10 expression in white adipocytes (WAT). The expression levels were measured by treating RNA extracted from white adipocytes from each mouse model using a mouse U74A chip (Affymetrix) and a mouse 25K1.8 chip (Rossetta).

HEK293 cells = assay: DiOC6 staining of mitochondrial proton gradient in HEK293 cells; type: cell-based; conditions: DiOC6-stained HEK293 cells
Description: First, HEK293 cells were seeded in a 6-well plate at a density of 2×10^6 cells/well. After 24 hours, S1c25a10 gene cloned in pcDNA 3.1 vector was transfected into the cells using Lipofectamine 2000. As a negative control there were used cells having only the vector transfected, and as positive controls there were used cells having mouse UCP1 transfected and cells having human UCP3 transfected.
After 48 hours from transfection of the gene, the mitochondrial gradient sensitivity-indicating agent DiOC6 (3-3′-dihexyloxacarbocyanine iodide) was used for staining. The staining was performed by treating the cells with 0.3 μM DiOC6 for 20 minutes followed by rinsing twice with PBS. DiOC6 binds to mitochondria in greater amount as the proton gradient increases, emitting strong fluorescence. On the other hand, it binds to mitochondria in lower amount as the proton gradient decreases, resulting in weaker fluorescent intensity.
FIG. 1(a) is a confocal micrograph showing DiOC6-stained HEK293 cells treated with CCCP (carbonyl cyanide m-chlorophenylhydrazone) which uncouples the intracellular mitochondrial proton gradient, and FIG. 1(b) is a photograph of HEK293 cells without CCCP treatment. With the untreated HEK293 cells, the intracellular mitochondria are clearly stained by outlining dots. […] It was thus confirmed that the mitochondria had been stained in a proton gradient-specific manner. […]

mouse S1c25a10 gene = assay: Suppression of mouse S1c25a10 expression by siRNA transfection (RNAi); type: cell-based; conditions: siRNA to mouse S1c25a10 gene
Source text: as §1
The nucleotide sequences of siRNA corresponding to the mouse S1c25a10 gene (NM_013770) are also shown below.

[1] = administered mice, ad lib fed (FF)

## H4: siRNA to human S1c25a10 gene, Position 556, SEQ ID NOs: 9 and 10 (chain 1 AAACAGTCTCCTGAGACCCTCCCTGTCTC; chain 2 AAGAGGGTCTCAGGAGACTGTCCTGTCTC; listed as DNA, chemistry not given here)
Human S1c25a10 gene
  S1c25a10 gene expression (inhibiting effect): particularly powerful inhibiting effects
Human S1c25a10 gene; listed as siRNA consisting of nucleic acids of SEQ ID NOs: 9 and 10
  S1c25a10 gene expression (inhibiting effect): powerfully inhibit S1c25a10 expression
Human S1c25a10 gene; listed as siRNA consisting of the nucleic acids of SEQ ID NOs: 9 and 10
  S1c25a10 gene expression (inhibiting effect): significantly reduce expression

## D-Try^34 NPY
S1c25a10 gene; [1]
  Slc25a10 expression: 3.0
S1c25a10 gene; pair feeding (PF) mice
  Slc25a10 expression: 1.9

## melanin-concentrating hormone (DFDMLRCMLGRVYRPCWQV; ends and bridges not checked; cysteine pairing not given here; UniProt P56942 147-165, looked up) [MCH, MCH infused i.c.v. to induce obesity in mice]
S1c25a10 gene; [1]
  Slc25a10 expression: 1.7
S1c25a10 gene; pair feeding (PF) mice
  Slc25a10 expression: 2.4

## N#CC(C#N)=NNc1cccc(Cl)c1 [CCCP, carbonyl cyanide m-chlorophenylhydrazone]
HEK293 cells; confocal micrograph, versus untreated cells
  fluorescent intensity: significantly reduced
HEK293 cells; flow cytometer
  Mean fluorescent intensity: 5.4

## M8: siRNA to mouse S1c25a10 gene, Position 1159, SEQ ID NOs: 41 and 42 (chain 1 AAGTGGCACCTCTGCCCTACTCCTGTCTC; chain 2 AAAGTAGGGCAGAGGTGCCACCCTGTCTC; listed as DNA, chemistry not given here)
Mouse S1c25a10 gene
  S1c25a10 gene expression (inhibiting effect): particularly powerful inhibiting effects
Mouse S1c25a10 gene; listed as siRNA consisting of nucleic acids of SEQ ID NOs: 41 and 42
  S1c25a10 gene expression (inhibiting effect): powerfully inhibit S1c25a10 expression
Mouse S1c25a10 gene; listed as siRNA consisting of the nucleic acids of SEQ ID NOs: 41 and 42
  S1c25a10 gene expression (inhibiting effect): significantly reduce expression
